Test results published in patent US10597388B2, “Pyridazinone herbicides” (FMC CORPORATION, priority 2014, dated 2020).

Tests used:
Experiment in all cases: Test E greenhouse herbicide test, pre- and postemergence
Assay type in all cases: in vivo
[1] = tested on: barnyardgrass (Echinochloa crus-galli)
In short: (§1)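 Seedlings reaching 2–18 cm (1- to 4-leaf stage) received foliar treatment, while seeds in silt loam received a soil surface spray; the vehicle in each case was a non-phytotoxic solvent mixture including surfactant. Visual scoring versus controls followed 14–21 d later on a 0–100 scale.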

[2] = tested on: nutsedge, yellow (yellow nutsedge, Cyperus esculentus); settings: Preemergence
In short: as §1

kochia (Kochia scoparia) = tested on: kochia (Kochia scoparia)
In short: as §1

[3] = tested on: beggarticks (hairy beggarticks, Bidens pilosa)
In short: as §1

[4] = tested on: lambsquarters (Chenopodium album); settings: Preemergence
In short: as §1

[5] = tested on: sandbur (southem sandbur, Cenchrus echinatus)
In short: as §1

[6] = tested on: Italian ryegrass (Lolium multiflorum)
In short: as §1

soybean (Glycine max) = tested on: soybean (Glycine max)
In short: as §1

[7] = tested on: foxtail, green (green foxtail, Setaria viridis); settings: Preemergence
In short: as §1

[8] = tested on: panicum, fall (fall panicum, Panicum dichotomiflorum)
In short: as §1

[9] = 62 g ai/ha, Postemergence, scale 0 to 100 (0 no effect, 100 complete control)
[10] = 62 g ai/ha, Preemergence, scale 0 to 100 (0 no effect, 100 complete control)
[11] = 125 g ai/ha, Postemergence, scale 0 to 100 (0 no effect, 100 complete control)
[12] = 125 g ai/ha, Preemergence, scale 0 to 100 (0 no effect, 100 complete control)
[13] = Postemergence, 16 g ai/ha, visual, scale 0 no effect to 100 complete control
[14] = Postemergence, 31 g ai/ha, visual, scale 0 no effect to 100 complete control
[15] = Preemergence, 16 g ai/ha, scale 0 to 100, 0 no effect, 100 complete control
[16] = Preemergence, 31 g ai/ha, scale 0 to 100, 0 no effect, 100 complete control
[17] = 125 g ai/ha, scale 0 to 100 (0 no effect, 100 complete control)
[18] = 16 g ai/ha, scale 0 to 100, 0 no effect, 100 complete control
[19] = 31 g ai/ha, scale 0 to 100, 0 no effect, 100 complete control
[20] = 62 g ai/ha, scale 0 to 100 (0 no effect, 100 complete control)
[21] = 250 g ai/ha, Postemergence, scale 0 to 100 (0 no effect, 100 complete control)
[22] = Preemergence, 250 g ai/ha, visual, scale 0 no effect to 100 complete control
[23] = 250 g ai/ha, visual, scale 0 no effect to 100 complete control

CCC(=O)Oc1c(C)nn(C)c(=O)c1-c1c(C)sc2ccc(Cl)cc12 [Compound 109]
50: Plant response rating, Ryegrass, Italian [6, 13] | Plant response rating, Panicum, Fall [8, 13]
98: Plant response rating, Lambsquarters [4, 17] | Plant response rating, Ryegrass, Italian [6, 12]
80: Plant response rating, Kochia (kochia (Kochia scoparia); [13]) | Plant response rating, Beggarticks [3, 13] | Plant response rating, Panicum, Fall [8, 11] | Plant response rating, Panicum, Fall [8, 16]
70: Plant response rating, Sandbur [5, 11]
30: Plant response rating, Barnyardgrass [1, 9] | Plant response rating, Barnyardgrass [1, 14]
95: Plant response rating, Kochia (kochia (Kochia scoparia); [9]) | Plant response rating, Kochia (kochia (Kochia scoparia); [14]) | Plant response rating, Lambsquarters [4, 19] | Plant response rating, Panicum, Fall [8, 12]
0: Plant response rating, Barnyardgrass [1, 15] | Plant response rating, Barnyardgrass [1, 16] | Plant response rating, Nutsedge, Yellow [2, 18] | Plant response rating, Nutsedge, Yellow [2, 19] | Plant response rating, Kochia (kochia (Kochia scoparia); [15]) | Plant response rating, Lambsquarters [4, 18] | Plant response rating, Sandbur [5, 15] | Plant response rating, Soybean (soybean (Glycine max); [12]) | Plant response rating, Soybean (soybean (Glycine max); [13]) | Plant response rating, Soybean (soybean (Glycine max); [14]) | Plant response rating, Soybean (soybean (Glycine max); [15]) | Plant response rating, Soybean (soybean (Glycine max); [16]) | Plant response rating, Foxtail, Green [7, 18] | Plant response rating, Foxtail, Green [7, 19]
25: Plant response rating, Barnyardgrass [1, 12] | Plant response rating, Barnyardgrass [1, 13]
100: Plant response rating, Kochia (kochia (Kochia scoparia); [11]) | Plant response rating, Kochia (kochia (Kochia scoparia); [12]) | Plant response rating, Beggarticks [3, 10] | Plant response rating, Beggarticks [3, 11] | Plant response rating, Beggarticks [3, 12]
75: Plant response rating, Beggarticks [3, 16] | Plant response rating, Sandbur [5, 12] | Plant response rating, Ryegrass, Italian [6, 14] | Plant response rating, Ryegrass, Italian [6, 16] | Plant response rating, Panicum, Fall [8, 15]
10: Plant response rating, Barnyardgrass [1, 10] | Plant response rating, Kochia (kochia (Kochia scoparia); [16])
20: Plant response rating, Beggarticks [3, 15] | Plant response rating, Soybean (soybean (Glycine max); [11])
65: Plant response rating, Panicum, Fall [8, 9]
60: Plant response rating, Sandbur [5, 13] | Plant response rating, Ryegrass, Italian [6, 15] | Plant response rating, Foxtail, Green [7, 17] | Plant response rating, Panicum, Fall [8, 14]
90: Plant response rating, Beggarticks [3, 14] | Plant response rating, Ryegrass, Italian [6, 9]
85: Plant response rating, Beggarticks [3, 9] | Plant response rating, Ryegrass, Italian [6, 11]
40: Plant response rating, Barnyardgrass [1, 11] | Plant response rating, Nutsedge, Yellow [2, 17] | Plant response rating, Sandbur [5, 14] | Plant response rating, Sandbur [5, 16] | Plant response rating, Foxtail, Green [7, 20]

CCOC(=O)Oc1c(C)nn(C)c(=O)c1-c1c(C)sc2ccc(C)cc12 [Compound 82]
20: Plant response rating, Kochia (kochia (Kochia scoparia); [16]) | Plant response rating, Foxtail, Green [7, 19]
65: Plant response rating, Nutsedge, Yellow [2, 23] | Plant response rating, Panicum, Fall [8, 9]
100: Plant response rating, Kochia (kochia (Kochia scoparia); [12]) | Plant response rating, Kochia (kochia (Kochia scoparia); [22]) | Plant response rating, Beggarticks [3, 10] | Plant response rating, Beggarticks [3, 12] | Plant response rating, Beggarticks [3, 16] | Plant response rating, Beggarticks [3, 22] | Plant response rating, Lambsquarters [4, 17] | Plant response rating, Lambsquarters [4, 23] | Plant response rating, Ryegrass, Italian [6, 12] | Plant response rating, Ryegrass, Italian [6, 22] | Plant response rating, Panicum, Fall [8, 22]
98: Plant response rating, Kochia (kochia (Kochia scoparia); [9]) | Plant response rating, Kochia (kochia (Kochia scoparia); [21]) | Plant response rating, Beggarticks [3, 11] | Plant response rating, Beggarticks [3, 21] | Plant response rating, Lambsquarters [4, 19] | Plant response rating, Panicum, Fall [8, 12]
90: Plant response rating, Kochia (kochia (Kochia scoparia); [10]) | Plant response rating, Kochia (kochia (Kochia scoparia); [14]) | Plant response rating, Beggarticks [3, 9] | Plant response rating, Beggarticks [3, 14] | Plant response rating, Foxtail, Green [7, 23] | Plant response rating, Panicum, Fall [8, 16]
95: Plant response rating, Kochia (kochia (Kochia scoparia); [11]) | Plant response rating, Ryegrass, Italian [6, 10] | Plant response rating, Panicum, Fall [8, 10]
70: Plant response rating, Sandbur [5, 11] | Plant response rating, Ryegrass, Italian [6, 9] | Plant response rating, Foxtail, Green [7, 20] | Plant response rating, Panicum, Fall [8, 14]
40: Plant response rating, Barnyardgrass [1, 9] | Plant response rating, Barnyardgrass [1, 22] | Plant response rating, Nutsedge, Yellow [2, 17] | Plant response rating, Soybean (soybean (Glycine max); [11])
80: Plant response rating, Ryegrass, Italian [6, 21]
30: Plant response rating, Barnyardgrass [1, 12] | Plant response rating, Barnyardgrass [1, 14]
60: Plant response rating, Sandbur [5, 12]
50: Plant response rating, Barnyardgrass [1, 11] | Plant response rating, Barnyardgrass [1, 21] | Plant response rating, Sandbur [5, 14] | Plant response rating, Ryegrass, Italian [6, 14]
35: Plant response rating, Sandbur [5, 10] | Plant response rating, Soybean (soybean (Glycine max); [21])
0: Plant response rating, Barnyardgrass [1, 16] | Plant response rating, Nutsedge, Yellow [2, 19] | Plant response rating, Sandbur [5, 16] | Plant response rating, Soybean (soybean (Glycine max); [10]) | Plant response rating, Soybean (soybean (Glycine max); [12]) | Plant response rating, Soybean (soybean (Glycine max); [16])
15: Plant response rating, Barnyardgrass [1, 10]
75: Plant response rating, Lambsquarters [4, 20] | Plant response rating, Sandbur [5, 21] | Plant response rating, Sandbur [5, 22] | Plant response rating, Ryegrass, Italian [6, 11] | Plant response rating, Ryegrass, Italian [6, 16] | Plant response rating, Foxtail, Green [7, 17] | Plant response rating, Panicum, Fall [8, 11] | Plant response rating, Panicum, Fall [8, 21]
10: Plant response rating, Nutsedge, Yellow [2, 20] | Plant response rating, Soybean (soybean (Glycine max); [14])

CCOC(=O)Oc1c(C)nn(C)c(=O)c1-c1c(C)sc2c(C)cc(C)cc12 [Compound 83]
40: Plant response rating, Barnyardgrass [1, 11] | Plant response rating, Barnyardgrass [1, 14] | Plant response rating, Kochia (kochia (Kochia scoparia); [14]) | Plant response rating, Sandbur [5, 14] | Plant response rating, Foxtail, Green [7, 20]
15: Plant response rating, Soybean (soybean (Glycine max); [21])
50: Plant response rating, Barnyardgrass [1, 9] | Plant response rating, Barnyardgrass [1, 21]
90: Plant response rating, Panicum, Fall [8, 21] | Plant response rating, Panicum, Fall [8, 16]
85: Plant response rating, Ryegrass, Italian [6, 21]
65: Plant response rating, Nutsedge, Yellow [2, 20] | Plant response rating, Nutsedge, Yellow [2, 19] | Plant response rating, Kochia (kochia (Kochia scoparia); [21]) | Plant response rating, Sandbur [5, 11]
70: Plant response rating, Nutsedge, Yellow [2, 17] | Plant response rating, Sandbur [5, 10] | Plant response rating, Sandbur [5, 21] | Plant response rating, Foxtail, Green [7, 23] | Plant response rating, Panicum, Fall [8, 9] | Plant response rating, Panicum, Fall [8, 14]
75: Plant response rating, Barnyardgrass [1, 22] | Plant response rating, Nutsedge, Yellow [2, 23] | Plant response rating, Kochia (kochia (Kochia scoparia); [11]) | Plant response rating, Kochia (kochia (Kochia scoparia); [22]) | Plant response rating, Sandbur [5, 12]
100: Plant response rating, Beggarticks [3, 9] | Plant response rating, Beggarticks [3, 10] | Plant response rating, Beggarticks [3, 11] | Plant response rating, Beggarticks [3, 12] | Plant response rating, Beggarticks [3, 21] | Plant response rating, Beggarticks [3, 16] | Plant response rating, Beggarticks [3, 22] | Plant response rating, Lambsquarters [4, 17] | Plant response rating, Lambsquarters [4, 19] | Plant response rating, Lambsquarters [4, 23] | Plant response rating, Ryegrass, Italian [6, 22] | Plant response rating, Panicum, Fall [8, 12]
60: Plant response rating, Kochia (kochia (Kochia scoparia); [9]) | Plant response rating, Ryegrass, Italian [6, 9] | Plant response rating, Ryegrass, Italian [6, 14]
98: Plant response rating, Beggarticks [3, 14] | Plant response rating, Lambsquarters [4, 20] | Plant response rating, Ryegrass, Italian [6, 12] | Plant response rating, Panicum, Fall [8, 22]
30: Plant response rating, Barnyardgrass [1, 10]
80: Plant response rating, Sandbur [5, 22] | Plant response rating, Ryegrass, Italian [6, 11] | Plant response rating, Ryegrass, Italian [6, 16] | Plant response rating, Panicum, Fall [8, 11]
0: Plant response rating, Barnyardgrass [1, 16] | Plant response rating, Kochia (kochia (Kochia scoparia); [10]) | Plant response rating, Kochia (kochia (Kochia scoparia); [12]) | Plant response rating, Kochia (kochia (Kochia scoparia); [16]) | Plant response rating, Soybean (soybean (Glycine max); [10]) | Plant response rating, Soybean (soybean (Glycine max); [11]) | Plant response rating, Soybean (soybean (Glycine max); [12]) | Plant response rating, Soybean (soybean (Glycine max); [14]) | Plant response rating, Soybean (soybean (Glycine max); [16]) | Plant response rating, Soybean (soybean (Glycine max); [22]) | Plant response rating, Foxtail, Green [7, 19]
20: Plant response rating, Sandbur [5, 16]
35: Plant response rating, Barnyardgrass [1, 12]
95: Plant response rating, Ryegrass, Italian [6, 10] | Plant response rating, Foxtail, Green [7, 17] | Plant response rating, Panicum, Fall [8, 10]
